Measurements as given in PubChem BioAssay AID1963854 (Molecular Pharmacology Branch, DTP, NCI, 2024).

System: 186277-243-T-J2-PDC complex spheroid viability
Assay: Anticancer human tumor 186277-243-T-J2-PDC patient-derived colon adenocarcinoma cell line growth inhibition [POLQ]
Settings: for IC50: curve of first compound; for viability, T/C: stronger effect = lower value
Method in brief: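 Complex spheroid viability model combining PDC tumour cells with endothelial (HUVEC) and MSC stromal cells. Novobiocin, ART-558 or RP6685 were tested singly and in combination with standard and investigational anticancer drugs. Each was titrated in half-log steps from near clinical Cmax, or from 10 microM where Cmax was unknown.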

[1] = second compound 0.0316 µM, first compound 0.0316 µM
[2] = second compound 0.0316 µM, first compound 0.1 µM
[3] = second compound 0.0316 µM, first compound 0.316 µM
[4] = second compound 0.0316 µM, first compound 1 µM
[5] = second compound 0.0316 µM, first compound 3.16 µM
[6] = second compound 0.0316 µM, first compound 10 µM
[7] = second compound 0.1 µM, first compound 0.0316 µM
[8] = second compound 0.1 µM, first compound 0.1 µM
[9] = second compound 0.1 µM, first compound 0.316 µM
[10] = second compound 0.1 µM, first compound 1 µM
[11] = second compound 0.1 µM, first compound 3.16 µM
[12] = second compound 0.1 µM, first compound 10 µM
[13] = second compound 0.316 µM, first compound 0.0316 µM
[14] = second compound 0.316 µM, first compound 0.1 µM
[15] = second compound 0.316 µM, first compound 0.316 µM
[16] = second compound 0.316 µM, first compound 1 µM
[17] = second compound 0.316 µM, first compound 3.16 µM
[18] = second compound 0.316 µM, first compound 10 µM
[19] = second compound 1 µM, first compound 0.0316 µM
[20] = second compound 1 µM, first compound 0.1 µM
[21] = second compound 1 µM, first compound 0.316 µM
[22] = second compound 1 µM, first compound 1 µM
[23] = second compound 1 µM, first compound 3.16 µM
[24] = second compound 1 µM, first compound 10 µM
[25] = second compound 3.16 µM, first compound 0.0316 µM
[26] = second compound 3.16 µM, first compound 0.1 µM
[27] = second compound 3.16 µM, first compound 0.316 µM
[28] = second compound 3.16 µM, first compound 1 µM
[29] = second compound 3.16 µM, first compound 3.16 µM
[30] = second compound 3.16 µM, first compound 10 µM
[31] = second compound 10 µM, first compound 0.0316 µM
[32] = second compound 10 µM, first compound 0.1 µM
[33] = second compound 10 µM, first compound 0.316 µM
[34] = second compound 10 µM, first compound 1 µM
[35] = second compound 10 µM, first compound 3.16 µM
[36] = second compound 10 µM, first compound 10 µM
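Note: spheroids exposed to compounds for seven days.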
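Throughout, for viability, T/C: 100% = DMSO vehicle control viability.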

O=C(c1cc(Cc2n[nH]c(=O)c3ccccc23)ccc1F)N1CCN(C(=O)C2CC2)CC1 + Nc1ccc(C#CCN(C(=O)Cc2ncc(C(F)(F)F)cc2C(F)(F)F)c2ccc(F)cc2)nn1
IC50 (second compound 0.0316 µM): > 10 µM
IC50 (second compound 0.1 µM): > 10 µM
IC50 (second compound 0.316 µM): > 10 µM
IC50 (second compound 1 µM): > 10 µM
IC50 (second compound 3.16 µM): > 10 µM
IC50 (second compound 10 µM): > 10 µM
viability, T/C [1]: 105%
viability, T/C [2]: 89.9%
viability, T/C [3]: 106%
viability, T/C [4]: 92.3%
viability, T/C [5]: 107%
viability, T/C [6]: 121%
viability, T/C [7]: 97.5%
viability, T/C [8]: 91.6%
viability, T/C [9]: 111%
viability, T/C [10]: 101%
viability, T/C [11]: 104%
viability, T/C [12]: 117%
viability, T/C [13]: 100%
viability, T/C [14]: 96.7%
viability, T/C [15]: 98.2%
viability, T/C [16]: 93.7%
viability, T/C [17]: 102%
viability, T/C [18]: 120%
viability, T/C [19]: 96.1%
viability, T/C [20]: 101%
viability, T/C [21]: 98.7%
viability, T/C [22]: 105%
viability, T/C [23]: 115%
viability, T/C [24]: 108%
viability, T/C [25]: 95%
viability, T/C [26]: 107%
viability, T/C [27]: 110%
viability, T/C [28]: 95.2%
viability, T/C [29]: 110%
viability, T/C [30]: 105%
viability, T/C [31]: 106%
viability, T/C [32]: 110%
viability, T/C [33]: 99.5%
viability, T/C [34]: 102%
viability, T/C [35]: 117%
viability, T/C [36]: 95.1%

CC1COCCN1c1cc(-c2ccnn2C)c2ccnc(-c3ccn[nH]3)c2n1 (stereo unspecified) + Nc1ccc(C#CCN(C(=O)Cc2ncc(C(F)(F)F)cc2C(F)(F)F)c2ccc(F)cc2)nn1
IC50 (second compound 0.0316 µM): 0.074 µM
IC50 (second compound 0.1 µM): 0.0752 µM
IC50 (second compound 0.316 µM): 0.0763 µM
IC50 (second compound 1 µM): 0.0764 µM
IC50 (second compound 3.16 µM): 0.0758 µM
IC50 (second compound 10 µM): 0.0719 µM
viability, T/C [1]: 113%
viability, T/C [2]: 27.5%
viability, T/C [3]: 10.3%
viability, T/C [4]: 7.67%
viability, T/C [5]: 6.65%
viability, T/C [6]: 7.86%
viability, T/C [7]: 115%
viability, T/C [8]: 28.8%
viability, T/C [9]: 11%
viability, T/C [10]: 7.38%
viability, T/C [11]: 6.86%
viability, T/C [12]: 9.94%
viability, T/C [13]: 126%
viability, T/C [14]: 26.8%
viability, T/C [15]: 9.95%
viability, T/C [16]: 7.12%
viability, T/C [17]: 6.81%
viability, T/C [18]: 9.08%
viability, T/C [19]: 124%
viability, T/C [20]: 27.5%
viability, T/C [21]: 9.34%
viability, T/C [22]: 7.54%
viability, T/C [23]: 6.88%
viability, T/C [24]: 9.31%
viability, T/C [25]: 123%
viability, T/C [26]: 26.7%
viability, T/C [27]: 9.31%
viability, T/C [28]: 6.61%
viability, T/C [29]: 8.2%
viability, T/C [30]: 7.84%
viability, T/C [31]: 118%
viability, T/C [32]: 22.5%
viability, T/C [33]: 9.8%
viability, T/C [34]: 7.22%
viability, T/C [35]: 6.51%
viability, T/C [36]: 7.63%

O=C(Nc1ccc(O)c(NS(=O)(=O)c2ccc(F)cc2)c1)c1ccc(-c2ccccc2)cc1 + Nc1ccc(C#CCN(C(=O)Cc2ncc(C(F)(F)F)cc2C(F)(F)F)c2ccc(F)cc2)nn1
IC50 (second compound 0.0316 µM): > 10 µM
IC50 (second compound 0.1 µM): > 10 µM
IC50 (second compound 0.316 µM): > 10 µM
IC50 (second compound 1 µM): > 10 µM
IC50 (second compound 3.16 µM): > 10 µM
IC50 (second compound 10 µM): > 10 µM
viability, T/C [1]: 117%
viability, T/C [2]: 91%
viability, T/C [3]: 92.4%
viability, T/C [4]: 89.4%
viability, T/C [5]: 99.8%
viability, T/C [6]: 110%
viability, T/C [7]: 95.5%
viability, T/C [8]: 88.8%
viability, T/C [9]: 96.7%
viability, T/C [10]: 86.5%
viability, T/C [11]: 89.9%
viability, T/C [12]: 98%
viability, T/C [13]: 97.6%
viability, T/C [14]: 96%
viability, T/C [15]: 97.5%
viability, T/C [16]: 96.7%
viability, T/C [17]: 101%
viability, T/C [18]: 107%
viability, T/C [19]: 101%
viability, T/C [20]: 96.3%
viability, T/C [21]: 92.3%
viability, T/C [22]: 81.9%
viability, T/C [23]: 103%
viability, T/C [24]: 99.9%
viability, T/C [25]: 96.3%
viability, T/C [26]: 80.8%
viability, T/C [27]: 104%
viability, T/C [28]: 96.7%
viability, T/C [29]: 103%
viability, T/C [30]: 95.9%
viability, T/C [31]: 103%
viability, T/C [32]: 87.5%
viability, T/C [33]: 91.2%
viability, T/C [34]: 104%
viability, T/C [35]: 97.2%
viability, T/C [36]: 99.2%
